The structures appear in SMILES notation.

Broadly, the IC50 is the midpoint of a concentration-inhibition curve.

One assay deals with T1, α4β1 integrin (Homo sapiens, UniProt P05556+P13612).
T1 construct: endogenous in cells; host or cells: Ramos cells
T1 sequence (P13612 34-1032): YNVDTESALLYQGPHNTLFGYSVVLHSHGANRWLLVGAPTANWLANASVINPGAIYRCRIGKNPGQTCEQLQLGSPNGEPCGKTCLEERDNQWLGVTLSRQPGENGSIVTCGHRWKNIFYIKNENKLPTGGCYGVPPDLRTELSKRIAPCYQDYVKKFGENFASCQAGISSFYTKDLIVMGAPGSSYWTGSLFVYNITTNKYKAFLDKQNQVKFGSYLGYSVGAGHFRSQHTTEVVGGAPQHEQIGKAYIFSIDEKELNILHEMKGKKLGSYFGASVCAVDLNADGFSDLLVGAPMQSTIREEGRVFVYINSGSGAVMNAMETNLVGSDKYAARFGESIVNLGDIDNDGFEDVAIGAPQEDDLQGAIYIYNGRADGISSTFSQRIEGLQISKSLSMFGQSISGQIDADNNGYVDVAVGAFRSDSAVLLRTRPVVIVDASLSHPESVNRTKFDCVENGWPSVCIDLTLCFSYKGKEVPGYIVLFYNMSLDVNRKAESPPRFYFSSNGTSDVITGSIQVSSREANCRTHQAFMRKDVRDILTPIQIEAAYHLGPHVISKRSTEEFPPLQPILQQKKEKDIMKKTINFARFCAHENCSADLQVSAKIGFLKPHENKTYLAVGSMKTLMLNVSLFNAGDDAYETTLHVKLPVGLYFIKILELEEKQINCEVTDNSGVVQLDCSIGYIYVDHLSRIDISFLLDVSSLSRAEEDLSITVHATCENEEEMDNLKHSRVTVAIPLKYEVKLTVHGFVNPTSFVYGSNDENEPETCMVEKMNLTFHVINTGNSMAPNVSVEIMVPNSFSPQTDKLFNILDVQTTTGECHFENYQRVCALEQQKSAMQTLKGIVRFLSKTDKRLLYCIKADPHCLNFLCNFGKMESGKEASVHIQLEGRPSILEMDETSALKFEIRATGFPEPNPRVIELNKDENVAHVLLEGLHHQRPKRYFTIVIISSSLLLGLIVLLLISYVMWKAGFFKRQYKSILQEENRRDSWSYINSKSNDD
T1 sequence (P05556 21-798): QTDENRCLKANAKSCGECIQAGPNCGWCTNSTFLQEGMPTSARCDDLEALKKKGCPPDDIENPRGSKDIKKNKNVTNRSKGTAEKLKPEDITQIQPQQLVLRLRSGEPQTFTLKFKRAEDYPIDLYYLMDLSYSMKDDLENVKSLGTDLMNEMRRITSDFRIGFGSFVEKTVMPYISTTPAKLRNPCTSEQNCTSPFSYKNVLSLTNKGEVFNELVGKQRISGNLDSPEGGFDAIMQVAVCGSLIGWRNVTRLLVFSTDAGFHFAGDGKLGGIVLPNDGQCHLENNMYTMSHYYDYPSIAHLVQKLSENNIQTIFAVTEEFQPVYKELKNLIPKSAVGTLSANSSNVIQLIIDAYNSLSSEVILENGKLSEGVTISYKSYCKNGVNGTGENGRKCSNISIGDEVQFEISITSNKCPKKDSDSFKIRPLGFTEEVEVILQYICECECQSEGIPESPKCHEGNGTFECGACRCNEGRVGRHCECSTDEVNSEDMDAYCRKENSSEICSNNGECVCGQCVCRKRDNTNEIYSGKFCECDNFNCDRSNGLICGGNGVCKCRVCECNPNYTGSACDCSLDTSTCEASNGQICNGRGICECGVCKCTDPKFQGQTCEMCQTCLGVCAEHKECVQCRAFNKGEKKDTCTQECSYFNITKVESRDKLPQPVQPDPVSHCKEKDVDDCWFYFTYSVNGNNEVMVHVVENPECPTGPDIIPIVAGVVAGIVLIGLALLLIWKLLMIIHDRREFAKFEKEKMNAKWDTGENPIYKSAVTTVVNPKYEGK
Put plainly: Adhesion of calcein-labeled Ramos cells to CS1 (fibronectin) peptide conjugated ovalbumin. Type of assay: cell-based. The settings on record: Table 2; Ramos cell adhesion to CS1 conjugated ovalbumin, 30 minutes at 37° C. Put shortly: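 Plates bearing CS1 fibronectin peptide coupled to ovalbumin (0.5 μg/ml coat, 3% BSA block) received calcein-labelled Ramos cells plus compound (100 μM stated) for 30 min at 37 °C. Buffer was TBS pH 7.5 with 1 mM Mg2+, Ca2+, Mn2+; bound cells quantified by fluorescence after lysis; […].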
For the compound `O=C(O)C[C@H](NC(=O)Nc1cccn(Cc2cccs2)c1=O)c1ccc2c(c1)OCO2` [(3S)-3-(1,3-benzodioxol-5-yl)-3-[({[2-oxo-1-(2-thienylmethyl)-1,2-dihydro-3-pyridinyl]amino}carbonyl)amino]propanoic acid], the IC50 was 900 nM.
On the same count and under the same terms, with `O=C(O)C[C@H](NC(=O)N[C@H]1CCCN(Cc2cccs2)C1=O)c1ccc2c(c1)OCO2` [(3S)-3-(1,3-benzodioxol-5-yl)-3-[({[(3S)-2-oxo-1-(2-thienylmethyl)hexahydro-3-pyridinyl]amino}carbonyl)amino]propanoic acid] the figure was 200 nM; with `O=C(O)C[C@H](NC(=O)N[C@H]1CCN(Cc2cccs2)C1=O)c1ccc2c(c1)OCO2` [(3S)-3-(1,3-benzodioxol-5-yl)-3-[({[(3S)-2-oxo-1-(2-thienylmethyl)tetrahydro-1H-pyrrol-3-yl]amino}carbonyl)amino]propanoic acid], 15000 nM.

Staying with this assay, now noted: Table 3; Ramos cell adhesion to CS1 conjugated ovalbumin, 30 minutes at 37° C.
On to `O=C(O)C[C@H](NC(=O)N1CCCCc2ccn(Cc3ccccc3)c(=O)c21)c1ccc2c(c1)OCO2` [(3S)-3-(1,3-benzodioxol-5-yl)-3-({[9-oxo-8-(phenylmethyl)-2,3,4,5,8,9-hexahydro-1H-pyrido[3,4-b]azepin-1-yl]carbonyl}amino)propanoic acid], for which the IC50 was 4000 nM.
On the same count and under the same terms, with `CCCc1ccn(Cc2ccccc2)c(=O)c1NC(=O)N[C@@H](CC(=O)O)c1ccc2c(c1)OCO2` [(3S)-3-(1,3-benzodioxol-5-yl)-3-[({[2-oxo-1-(phenylmethyl)-4-propyl-1,2-dihydro-3-pyridinyl]amino}carbonyl)amino]propanoic acid] the figure was 10 nM; with `COc1cc(OC)cc([C@H](CC(=O)O)NC(=O)Nc2c(O)ccn(Cc3ccccc3Cl)c2=O)c1` [(3S)-3-[3,5-bis(methyloxy)phenyl]-3-{[({1-[(2-chlorophenyl)methyl]-4-hydroxy-2-oxo-1,2-dihydro-3-pyridinyl}amino)carbonyl]amino}propanoic acid], 3 nM.

Staying with this assay, now noted: Table 4; Ramos cell adhesion to CS1 conjugated ovalbumin, 30 minutes at 37° C.
For the compound `O=C(Nc1cccn(Cc2cccs2)c1=O)NC(c1ccc2c(c1)OCO2)C(F)(F)C(=O)O` (stereo not shown) [3-(1,3-benzodioxol-5-yl)-2,2-difluoro-3-[({[2-oxo-1-(2-thiophenylmethyl)-1,2-dihydro-3-pyridinyl]amino}carbonyl)amino]propanoic acid], the IC50 was > 100000 nM.
The same measure, in the same setting: with `O=C(O)C[C@H](NC(=O)Nc1cccn(CC2CCCC2)c1=O)c1ccc2c(c1)OCO2` [(3S)-3-(1,3-benzodioxol-5-yl)-3-[({[1-(cyclopentylmethyl)-2-oxo-1,2-dihydro-3-pyridinyl]amino}carbonyl)amino]propanoic acid] the figure was 6000 nM.

Staying with this assay, now noted: Table 5; Ramos cell adhesion to CS1 conjugated ovalbumin; dose required to give 50% inhibition.
`O=C(O)CC(NC(=O)Nc1c(O)ccn(Cc2ccccc2Cl)c1=O)c1ccc2ccccc2c1` (stereo not shown) [3-[({[1-(2-chlorobenzyl)-4-hydroxy-2-oxo-1,2-dihydropyridin-3-yl]amino}carbonyl)amino]-3-(2-naphthyl)propanoic acid]: the 50% inhibitory concentration (IC50) was 20 nM.
Still for that read-out and setting: with `Cc1ccc([C@H](CC(=O)O)NC(=O)Nc2c(Nc3ccc(C(=O)O)cc3)ccn(Cc3ccccc3Cl)c2=O)cc1` [4-{[3-[({[(1S)-2-carboxy-1-(4-methylphenyl)ethyl]amino}carbonyl)amino]-1-(2-chlorobenzyl)-2-oxo-1,2-dihydropyridin-4-yl]amino}benzoic acid] the figure was 4 nM; with `CCCCOc1cccc([C@H](CC(=O)O)NC(=O)Nc2c(O)ccn(Cc3ccccc3Cl)c2=O)c1` [(3S)-3-(3-butoxyphenyl)-3-[({[1-(2-chlorobenzyl)-4-hydroxy-2-oxo-1,2-dihydropyridin-3-yl]amino}carbonyl)amino]propanoic acid], 5 nM.
Still for that read-out and setting: with `Cc1ccc([C@H](CC(=O)O)NC(=O)Nc2c(O)ccn(Cc3c(F)cccc3F)c2=O)cc1` [(3S)-3-[({[1-(2,6-difluorobenzyl)-4-hydroxy-2-oxo-1,2-dihydropyridin-3-yl]amino}carbonyl)amino]-3-(4-methylphenyl)propanoic acid] the figure was 8 nM.
As to `COc1cccc(OC)c1Cn1ccc(O)c(NC(=O)N[C@@H](CC(=O)O)c2ccc(C)cc2)c1=O` [(3S)-3-[({[1-(2,6-dimethoxybenzyl)-4-hydroxy-2-oxo-1,2-dihydropyridin-3-yl]amino}carbonyl)amino]-3-(4-methylphenyl)propanoic acid], the IC50 was 10 nM.
Same read-out and setting: with `Cc1ccc([C@H](CC(=O)O)NC(=O)Nc2c(O)ccn(Cc3c(Cl)cccc3C#N)c2=O)cc1` [(3S)-3-[({[1-(2-chloro-6-cyanobenzyl)-4-hydroxy-2-oxo-1,2-dihydropyridin-3-yl]amino}carbonyl)amino]-3-(4-methylphenyl)propanoic acid] the figure was 7 nM.

Still in this assay, the particulars now being: Table 7; Ramos cell adhesion to CS1 conjugated ovalbumin; dose required to give 50% inhibition.
With `CSc1ccc(C(CC(=O)O)NC(=O)Nc2c(O)c(C)cn(Cc3ccccc3Cl)c2=O)cc1` (stereo not shown), the IC50 is 15 nM.
The same measure, in the same setting: with `Cc1cn(Cc2ccccc2Cl)c(=O)c(NC(=O)N[C@H](c2ccccc2)c2nnn[nH]2)c1O` the figure was > 10000 nM; with `Cc1ccc([C@@H](NC(=O)Nc2c(O)c(C)cn(Cc3ccccc3Cl)c2=O)[C@H](C)C(=O)O)cc1`, 1500 nM.
The same measure, in the same setting: with `CCCCOc1cccc([C@H](CC(=O)O)NC(=O)Nc2c(O)c(C)cn(Cc3c(Cl)cccc3OCC)c2=O)c1` the figure was 4 nM; with `CCOc1cccc([C@H](CC(=O)O)NC(=O)Nc2c(O)c(C)cn(Cc3c(Cl)cccc3OCC(F)(F)F)c2=O)c1`, 4 nM; with `CCOc1cccc(Cl)c1Cn1c2c(c(O)c(NC(=O)N[C@@H](CC(=O)O)c3ccc4cc(OC)ccc4c3)c1=O)CCC2`, 2 nM.
With `CCCOc1cccc([C@H](CC(=O)O)NC(=O)Nc2c(O)c(C)cn(Cc3c(Cl)cccc3OCC)c2=O)c1`, the IC50 is 3 nM.
On the same count and under the same terms, with `Cc1cccc(Cl)c1Cn1c2c(c(O)c(NC(=O)N[C@@H](CC(=O)O)c3cccc(OC(C)C)c3)c1=O)CCC2` the figure was 10 nM.
On the same count and under the same terms, with `Cc1cn(Cc2ccccc2Cl)c(=O)c(NC(=O)N[C@@H](CC(=O)O)c2ccc3c(c2)CCO3)c1O` the figure was 6 nM; with `Cc1cccc(Cl)c1Cn1c2c(c(O)c(NC(=O)N[C@@H](CC(=O)O)c3cccc(OC(F)(F)F)c3)c1=O)CCC2`, 11 nM.
`CCN(CC)c1cccc([C@H](CC(=O)O)NC(=O)Nc2c(O)c3c(n(Cc4c(C)cccc4Cl)c2=O)CCC3)c1`: the IC50 was 10 nM.
`Cc1cn(Cc2c(C)cccc2Cl)c(=O)c(NC(=O)N[C@@H](CC(=O)O)c2ccc3c(ccn3C)c2)c1O`: the IC50 was 4 nM.
On the same count and under the same terms, with `CCc1ccc([C@H](CC(=O)O)NC(=O)Nc2c(O)c3c(n(Cc4c(C)cccc4Cl)c2=O)CCC3)cc1` the figure was 15 nM; with `Cc1cccc([C@H](CC(=O)O)NC(=O)Nc2c(O)c3c(n(Cc4c(C)cccc4Cl)c2=O)CCC3)c1`, 4 nM.
On the same count and under the same terms, with `Cc1cccc(Cl)c1Cn1c2c(c(O)c(NC(=O)N[C@@H](CC(=O)O)c3ccccc3)c1=O)CCC2` the figure was 17 nM.
On the same count and under the same terms, with `COc1ccc([C@H](CC(=O)O)NC(=O)Nc2c(O)c3c(n(Cc4c(C)cccc4Cl)c2=O)CCC3)cc1F` the figure was 3 nM.
In the case of `O=C(O)C[C@H](NC(=O)Nc1c(O)c2c(n(Cc3ccccc3Cl)c1=O)CCC2)c1cccc(O)c1`, the IC50 was 8 nM.
Same read-out and setting: with `O=C(O)C[C@H](NC(=O)Nc1c(O)c2c(n(Cc3ccccc3Cl)c1=O)CCC2)c1cccc(F)c1` the figure was 16 nM.
Still for that read-out and setting: with `O=C(O)C[C@H](NC(=O)Nc1c(O)c2c(n(Cc3ccccc3Cl)c1=O)CCC2)c1cccc(C(F)F)c1` the figure was 4 nM.
On the same count and under the same terms, with `CC1(C)Cc2cc([C@H](CC(=O)O)NC(=O)Nc3c(O)c4c(n(Cc5ccccc5Cl)c3=O)CCC4)ccc2O1` the figure was 3 nM; with `O=C(O)C[C@H](NC(=O)Nc1c(O)c2c(n(Cc3ccccc3Cl)c1=O)CCC2)c1ccc(F)cc1`, 9 nM; with `Cc1cn(Cc2ccccc2Cl)c(=O)c(NC(=O)N[C@@H](CC(=O)O)c2cccc(-c3ccccc3C(F)(F)F)c2)c1O`, 157 nM.
With `Cc1cn(Cc2ccccc2Cl)c(=O)c(NC(=O)N[C@@H](CC(=O)O)c2cccc(-c3ccccc3F)c2)c1O`, the IC50 was 25 nM.
On the same count and under the same terms, with `Cc1cn(Cc2ccccc2Cl)c(=O)c(NC(=O)N[C@@H](CC(=O)O)c2ccccc2F)c1O` the figure was 10 nM.
Same read-out and setting: with `Cc1cn(Cc2ccccc2Cl)c(=O)c(NC(=O)N[C@@H](CC(=O)O)c2cccc(O)c2)c1O` the figure was 9 nM; with `Cc1cc(C)cc(-c2cccc([C@H](CC(=O)O)NC(=O)Nc3c(O)c(C)cn(Cc4ccccc4Cl)c3=O)c2)c1`, 50 nM; with `Cc1ccc(-c2cccc([C@H](CC(=O)O)NC(=O)Nc3c(O)c(C)cn(Cc4ccccc4Cl)c3=O)c2)cc1`, 23 nM.
On the same count and under the same terms, with `Cc1cn(Cc2ccccc2Cl)c(=O)c(NC(=O)N[C@@H](CC(=O)O)c2ccccc2)c1O` the figure was 15 nM.
With `Cc1ccccc1-c1cccc([C@H](CC(=O)O)NC(=O)Nc2c(O)c(C)cn(Cc3ccccc3Cl)c2=O)c1`, the IC50 was 20 nM.
Consider `Cc1cccc(-c2cccc([C@H](CC(=O)O)NC(=O)Nc3c(O)c(C)cn(Cc4ccccc4Cl)c3=O)c2)c1`, for which the IC50 is 18 nM.
On the same count and under the same terms, with `Cc1ccc([C@H](CC(=O)O)NC(=O)Nc2c(O)c(C)cn(Cc3c(Cl)cccc3N3CCCCC3)c2=O)cc1` [(3S)-3-({[(1-{[2-chloro-6-tetrahydro-1(2H)-pyridinylphenyl]methyl}-4-hydroxy-5-methyl-2-oxo-1,2-dihydro-3-pyridinyl)amino]carbonyl}amino)-3-(4-methylphenyl)propanoic acid] the figure was 90 nM.
For the compound `COc1ccc(Cl)c(Cn2cc(C)c(O)c(NC(=O)N[C@@H](CC(=O)O)c3ccc(C)cc3)c2=O)c1` [(3S)-3-[({[1-(2-chloro-5-methoxybenzyl)-4-hydroxy-5-methyl-2-oxo-1,2-dihydropyridin-3-yl]amino}carbonyl)amino]-3-(4-methylphenyl)propanoic acid], the half-maximal inhibitory concentration (IC50) was 3 nM.

(Values after patent publication US6972296B2, “Carboxylic acid derivatives that inhibit the binding of integrins to their receptors” (Encysive Pharmaceuticals Inc., priority 1999, dated 2005).)
